“Also recorded” adds a separate entry of the source.
Experiments:
[1] = system: acidosis/GPR4-induced HUVEC cell adhesion; test: HUVEC-U937 monocyte cell adhesion assay; assay type: cell-based, human; conditions: treatment with cAMP pathway activators, attachment of U937 monocytes as readout
[2] = system: acidosis/GPR4-induced HUVEC cell adhesion; test: HUVEC-U937 monocyte cell adhesion assay; assay type: cell-based, human; conditions: HUVEC cells treated with acidic pH, attachment of U937 monocytes as readout
Protocol: Cell adhesion assay: To examine the adhesion of HUVEC endothelial cells and to model the interaction between endothelium and immune cells, the HUVEC-U937 monocyte adhesion assay was used as a functional readout. […] In brief, HUVEC endothelial cells were cultured in a 24-well plate to form a confluent monolayer, and treated with EGM-2/HEM media at various pHs for 5 to 15 hours. After the pH treatment, HUVEC cells were washed once with DMEM medium (pH 7.4), and then U937 monocytic cells resuspended in DMEM with 10% fetal bovine serum (FBS) were added to the HUVEC monolayer to allow adhesion for 1 hour at pH 7.4. Non-adherent cells were removed by gently washing several times with DMEM medium.
Effects on HUVEC cell adhesion: HUVEC cells with GPR4 siRNA or control siRNA were treated with different pHs, and the U937-HUVEC cell adhesion assay was performed.

Compound | effect on adhesion of HUVEC cells [1] | effect on acidosis/GPR4-induced HUVEC cell adhesion [2]
CO[C@@H]1[C@@H]2OP(=O)(O)OC[C@H]2O[C@H]1n1c(Sc2ccc(Cl)cc2)nc2c(N)ncnc21 [8-CPT-2Me-cAMP] | increases | 
Nc1ncnc2c1ncn2C1CCCO1 (centres unmarked) [SQ 22536] |  | abolishes; also recorded: reduces
C[C@H]1O[C@@H](n2cnc3c(N)ncnc32)C[C@@H]1O [2′,5′-dideoxyadenosine] |  | reduced; also recorded: abolishes; also recorded: diminishes
O=S(=O)(NCCNC/C=C/c1ccc(Br)cc1)c1cccc2cnccc12 [H-89] |  | did not affect; also recorded: does not affect
pertussis toxin | enhanced; also recorded: increases | 

Source: patent US8207139B2, “Function of GPR4 in vascular inflammatory response to acidosis and related methods” (priority 2009, dated 2012)
